# System: flexible GA-rich RNA, 5'-U(GAAG)2GU (RNA, single strand) UGAAGGAAGGU
# Experiment: fluorescence polarization
# Details: Na+ 50 mM; 25 mM MES pH 6.1, 0.002% Triton X, 25 °C; ligand fluorescence
row,SMILES,Kd [µM]
1,CCn1c(=O)c(-c2cc(F)c3nc(C)cn3c2)cc2ccc(N3CCN[C@@H](C)C3)cc21,39.7 ± 11.5
2,CN1CCN(c2cc(F)c3cc(-c4ccc(Cl)cc4)c(=O)oc3c2)CC1,42.8 ± 2.7
3,CN1CCN(c2ccc3cc(-c4ccc(Cl)cc4)c(=O)oc3c2)CC1,37.2 ± 1.0
4,CNC1CCN(c2ccc3cc(-c4cc(F)c5nc(C)cn5c4)c(=O)oc3c2)C1 (centres unmarked),19.3 ± 2.3
5,CNC1CCN(c2ccc3cc(-c4cc(F)c5nc(C)cn5c4)c(=O)oc3c2)CC1,16.7 ± 0.5
6,COc1cn2cc(-c3cc4ccc(N5CCNCC5)cc4oc3=O)nc2cn1,39.6 ± 0.4
7,C[C@H]1CN(c2ccc3cc(-c4cc(F)c5c(cnn5C)c4)c(=O)oc3c2)CCN1,11.6 ± 0.01
8,C[C@H]1CN(c2ccc3cc(-c4cc(F)c5nn(C)cc5c4)c(=O)oc3c2)CCN1,12.6 ± 0.4
9,Cc1cn2cc(-c3cc4c(C)cc(N5CCN[C@@H](C)C5)cc4oc3=O)cc(F)c2n1,19.3 ± 0.9
10,Cc1cn2cc(-c3cc4ccc(N5CC6(CNC6)C5)cc4oc3=O)cc(F)c2n1,32.0 ± 2.1
11,Cc1cn2cc(-c3cc4ccc(N5CC6CC(C5)N6)cc4oc3=O)cc(F)c2n1,10.7 ± 0.9
12,Cc1cn2cc(-c3cc4ccc(N5CC6CCCNC6C5)cc4oc3=O)cc(F)c2n1 (centres unmarked),13.5 ± 2.0
13,Cc1cn2cc(-c3cc4ccc(N5CC6CNCC6C5)cc4oc3=O)cc(F)c2n1 (centres unmarked),18.2 ± 1.9
14,Cc1cn2cc(-c3cc4ccc(N5CCN(C)CC5)cc4oc3=O)cc(F)c2n1,10.88 ± 0.3
15,Cc1cn2cc(-c3cc4ccc(N5CCN(C)CC5)cc4oc3=O)nc2c(C)n1,40.4 ± 6.5
16,Cc1cn2cc(-c3cc4ccc(N5CCN(CC6CCOCC6)[C@@H](C)C5)cc4oc3=O)cc(F)c2n1,12.0 ± 0.4
17,Cc1cn2cc(-c3cc4ccc(N5CCN[C@@H](C)C5)c(C)c4oc3=O)cc(F)c2n1,11.1 ± 2.8
18,Cc1cn2cc(-c3cc4ccc(N5CCN[C@@H](C)C5)cc4[nH]c3=O)cc(F)c2n1,33.3 ± 1.3
19,Cc1cn2cc(-c3cc4ccc(N5CCN[C@@H](C)C5)cc4n(CC4CC4)c3=O)cc(F)c2n1,42.6 ± 15.2
20,Cc1cn2cc(-c3cc4ccc(N5CCN[C@@H](C)C5)cc4n(CCO)c3=O)cc(F)c2n1,40.1 ± 5.2
21,Cc1cn2cc(-c3cc4ccc(N5CCN[C@@H](C)C5)cc4n4cnnc34)cc(F)c2n1,16.4 ± 1.1
22,Cc1cn2cc(-c3cc4ccc(N5CCN[C@@H](C)C5)cc4oc3=O)cc(F)c2n1,14.3 ± 1.1
23,Cc1cn2cc(-c3cc4ccc(N5CCN[C@@H](CO)C5)cc4oc3=O)cc(F)c2n1,11.9 ± 0.9
24,Cc1cn2cc(-c3cc4ccc(NC5CNC5)cc4oc3=O)cc(F)c2n1,15.6 ± 0.7
25,Cc1nccn2cc(-c3cc4ccc(N5CCN[C@@H](C)C5)cc4oc3=O)nc12,39.9 ± 11.5
26,O=c1oc2cc(N3CCNCC3)ccc2cc1-c1ccc2ccccc2c1,34.1 ± 0.6
27,O=c1oc2cc(N3CCNCC3)ccc2cc1-c1ccc2ncccc2c1,17.8 ± 3.9

# System: flexible GA-rich RNA, 5'-U(GAAG)2GU (RNA, single strand) UGAAGGAAGGU
# Experiment: fluorescence polarization (intrinsic ligand fluorescence)
# Details: Na+ 50 mM; 25 mM MES, 0.002% Triton X, pH 6.1, 25 °C, 0.1 μM ligand
row,SMILES,Kd [µM]
1,CCN1CCN(c2ccc3cc(-c4cc(F)c5nc(C)cn5c4)c(=O)oc3c2)C[C@@H]1C,3.06 ± 0.3
2,CCN1CCN(c2ccc3cc(-c4cn5cc(C)nc(C)c5n4)c(=O)oc3c2)C[C@@H]1C,14.1 ± 0.9
3,COc1c(N2CCN[C@@H](C)C2)ccc2cc(-c3cc(F)c4nc(C)cn4c3)c(=O)n(C)c12,22.1 ± 2.7
4,COc1ccc2nc(-c3cc4ccc(N5CCNCC5)cc4oc3=O)cn2c1,29.7 ± 3.0
5,COc1ccn2cc(-c3cc4ccc(N5CCNCC5)cc4oc3=O)nc2c1,10.7 ± 0.1
6,Cc1cn2cc(-c3cc4ccc(N5CC6CCC(C5)N6)cc4oc3=O)cc(F)c2n1,71.0 ± 2.3
7,Cc1cn2cc(-c3cc4ccc(N5CCN(CC6CC6)[C@@H](C)C5)cc4oc3=O)cc(F)c2n1,2.7 ± 0.1
8,Cc1cn2cc(-c3cc4ccc(N5CCN[C@@H](C)C5)cc4n(-c4ccccc4)c3=O)cc(F)c2n1,78.1 ± 9.7
9,Cc1cn2cc(-c3nc4ccc(N5CCN[C@@H](C)C5)cc4s3)c(F)cc2n1,38.9 ± 6.6
10,Cc1cn2cc(-c3nc4sc(N5CCN(C)CC5)cc4s3)cc(F)c2n1,35.7 ± 0.01
11,Cc1nc2c(F)cc(-c3cc4ccc(N5CCN[C@@H](C)C5)cc4oc3=O)cc2o1,> 100
12,O=c1oc2cc(N3CCNCC3)ccc2cc1-c1cn2ccc(C(F)(F)F)cc2n1,21.8 ± 0.2
13,O=c1oc2cc(N3CCNCC3)ccc2cc1-c1cn2ccc(Cl)cc2n1,25.9 ± 6.0
14,O=c1oc2cc(N3CCNCC3)ccc2cc1-c1cn2ccccc2n1,14.5 ± 1.3
